# Results: PubChem BioAssay (NCI)
#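 Cells were grown in 96-well plates and exposed to each compound for 48 hours at five concentrations; endpoints were interpolated linearly between bracketing concentrations, or set to the highest concentration if not reached. GI50 = concentration required for 50% inhibition of growth. TGI: total growth inhibition.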
# Legend:
# Experiment in all cases: DTP human tumour cell line panel, 48 h
# [1] = test system: 786-0 renal
# [2] = test system: MDA-MB-231 breast
# [3] = test system: MDA-MB-435
# [4] = test system: NCI-H522 lung
# [5] = test system: OVCAR-5 ovarian
# [6] = test system: RPMI-8226 leukemia
# [7] = test system: SR leukemia
SMILES,GI50 [1],TGI [1] [µM],GI50 [2],TGI [2] [µM],GI50 [3],TGI [3] [µM],GI50 [4],TGI [4],GI50 [5],TGI [5] [µM],GI50 [6],TGI [6],GI50 [7],TGI [7]
O=C(Nc1ccc(Cl)c(Cl)c1)Nc1ccccc1O,25.2 µM,75.1,10 µM,34.2,3.96 µM,15.3,2.65 µM,15.5 µM,15.7 µM,53.2,3.37 µM,32.3 µM,4.57 µM,24.8 µM
Cc1cc(C)n(-c2nnc3n2N=C(c2ccc(-c4ccccc4)cc2)CS3)n1,3.95 µM,> 100,3.22 µM,> 100,1.71 µM,4.46,2.95 µM,12.9 µM,5.3 µM,> 100,3.18 µM,> 100 µM,3.06 µM,> 100 µM
Nc1ccc2nc3n(c2c1)C(=O)c1ccccc1-3,–,> 100,–,–,–,–,–,> 100 µM,–,> 100,–,> 100 µM,–,> 100 µM
O=C1CSC(c2ccc(-c3nc4ccccc4s3)cc2)=N1,77.2 µM,> 100,24.1 µM,> 100,7.54 µM,24.8,32.9 µM,96.2 µM,26.3 µM,> 100,23.2 µM,52.6 µM,13.1 µM,59.8 µM
C=C1CC[C@@H](C(C)C)C[C@@H]2[C@H]([C@H](O)C[C@]2(C)O)[C@@]2(C)CC[C@@H]1O2,18.8 µM,33.4,13.9 µM,28,16.4 µM,32.1,15.2 µM,29.8 µM,13.2 µM,26,3.38 µM,17.2 µM,14.2 µM,30.9 µM
Clc1ccc(N=CNc2ccc(-c3nc4ccccc4o3)cc2)cc1,34.6 µM,> 100,25.6 µM,89.4,21.1 µM,49.8,–,–,33.3 µM,99.6,23.7 µM,> 100 µM,40.6 µM,> 100 µM
O=C(OCc1ccc2c(Cl)cc(Cl)c(O)c2n1)N1CCN(C(=O)c2cc3cc(F)ccc3[nH]2)CC1,4.3 µM,> 100,1.07 µM,> 55.6,0.358 µM,2.18,0.303 µM,> 100 µM,> 37.5 µM,> 100,0.48 µM,> 100 µM,0.401 µM,> 100 µM
CCN(CC)c1cc2oc3cc(N)cc(=N)c-3nc2cc1C,11.2 µM,70.1,6.04 µM,> 100,–,–,2.31 µM,6.05 µM,2.82 µM,7.4,1.03 µM,23.7 µM,–,–
C=CCN1CC2CON(C(=O)C(OC)(c3ccccc3)C(F)(F)F)C2C1C(C)C (stereo not drawn),26.7 µg/mL,–,41.4 µg/mL,–,41.8 µg/mL,–,27.5 µg/mL,78.8 µg/mL,32 µg/mL,–,9.82 µg/mL,41.7 µg/mL,11.1 µg/mL,65.1 µg/mL
COc1ccc2c(Oc3ccc(NC(=O)c4c(C)n(CC(C)(C)O)n(-c5ccccc5)c4=O)nc3)ccnc2c1,22.3 µM,> 100,8.92 µM,> 93.5,6.57 µM,> 66.5,6.84 µM,26.7 µM,37.8 µM,> 89.6,10.7 µM,> 79.3 µM,8.57 µM,> 100 µM
O=C(N/N=C/c1c(Cl)cccc1Cl)c1ccc(C(F)(F)F)nc1Nc1cccc(C(F)(F)F)c1,0.856 µM,3.25,1.51 µM,11.1,2.37 µM,> 100,1.76 µM,> 33.6 µM,4.06 µM,> 30.2,0.375 µM,10.5 µM,0.457 µM,14.4 µM
Cn1c(=O)c2c(ncn2CC(=O)Nc2ccc(-c3ccccc3)nn2)n(C)c1=O,> 100 µM,> 100,23.1 µM,> 100,> 100 µM,> 100,> 100 µM,> 100 µM,> 100 µM,> 100,> 100 µM,> 100 µM,42.9 µM,> 100 µM
CN1CCN(c2ccc(Nc3ncc4cc(C#N)c(=O)n(C5CCCC5)c4n3)cc2)CC1,0.693 µM,4.11,–,–,3.1 µM,> 100,4.29 µM,> 100 µM,0.942 µM,> 100,0.87 µM,5.33 µM,0.661 µM,3.86 µM
Nc1ccc2[nH]cc(CCC(=O)O)c2c1,–,> 100,–,> 100,–,> 100,–,> 100 µM,–,> 100,–,> 100 µM,–,–
COc1ccc2c(c1)C(C)Cc1c(ncnc1-n1cnc3cc(C)ccc31)N2C (stereo not drawn),0.0649 µM,15,0.229 µM,18.6,–,–,0.0544 µM,0.325 µM,0.294 µM,26.8,0.0407 µM,3.88 µM,0.0443 µM,11.1 µM
C[C@]12CC[C@@H]3c4ccc(O)c([N+](=O)[O-])c4CC[C@H]3[C@@H]1CC[C@@H]2NS(=O)(=O)c1cccc(Br)c1,2.7 µM,7.5,1.85 µM,4.14,1.53 µM,2.98,–,–,2.16 µM,5.17,2.44 µM,6.27 µM,3.09 µM,9.41 µM
COC(=O)c1cc(/C=C/c2ccc(S(N)(=O)=O)cc2)ccc1O,7.35 µM,> 100,24.9 µM,60.5,35.6 µM,> 100,20.2 µM,69.6 µM,59.2 µM,> 100,27.4 µM,> 100 µM,–,–
